The test system of experiment [1] is BT483. Nature of the experiment: Cell recovery by crystal violet staining. In kind it is cell-based, human. The conditions noted are these: 50 μg/ml Poly IC, 72 h. As for the experimental part: (§1) Cell recovery after treatment with TLR ligands was measured by crystal violet staining (Sigma-Aldrich). Cells were plated at 10^4 cells/well in 96 well plates. After 72 hours of culture either with or without TLR ligand, the cells were washed with PBS, fixed in 6% formaldehyde (Sigma-Aldrich) for 20 minutes, washed twice, and then stained with 0.1% crystal violet for 10 minutes. After washes and incubation in 1% SDS for 1 hour, the absorbance was read at 605 nm on a Vmax plate reader (Molecular Devices, Sunnyvale, Calif.). Annexin V staining was performed with an annexin-FITC apoptosis detection kit (BD Pharmingen, San Diego, Calif.) according to the manufacturer's instructions. Sub-diploid cells were detected by staining with 3 μg/mL propidium iodide (PI) (Molecular probes, Eugene, Oreg.), after overnight permeabilization in 70% ethanol. Fluorescence was analyzed by flow cytometry on a FACScalibur (Becton Dickinson, Mountain View, Calif.) equipped with a doublet-discrimination module and using Celiquest Pro software (Becton Dickinson).
(§2) Four human breast tumor cell lines, Cama-1, SW527, BT483 and MCF-7, were analyzed for cell death in response to Poly IC. Cells were cultured for 72 hours with 5 μg/ml PGN, 50 μg/ml Poly IC or 10 μg/ml LPS. Control cells were cultured with PBS. Cytotoxicity was assessed by crystal violet staining and expressed as a percent of control.

In experiment [2] the test system is Cama-1. Nature of the experiment: Cell recovery by crystal violet staining. The conditions noted are these: 50 μg/ml Poly IC, 72 h. The class given is cell-based, human. The method, then: as §1, §2
Experiment [3] concerns MCF-7. Nature of the experiment: Cell recovery by crystal violet staining. The class given is cell-based, human. To be noted: 50 μg/ml Poly IC, 72 h. The method, then: as §1, §2
The test system of experiment [4] is SW527. In words: Cell recovery by crystal violet staining. The class given is cell-based, human. To be noted: 50 μg/ml Poly IC, 72 h. As for the experimental part: as §1, §2
Experiment [5] has as its system TLR3 mRNA. In words: TLR3 mRNA expression by RT-PCR in Cama-1 cells. To be noted: 48 h. In kind it is cell-based, human. The method, then: Cama-1 cells were analyzed for TLR3 mRNA expression in response to Poly IC. Cama-1 cells were cultured in complete medium (DMEM F12 containing […] glucose and complemented with 2 mM L-glutamine, 10% fetal calf serum, 160 μg/mL gentalline, 2.5 mg/mL sodium bicarbonate) for 48 hours either alone or with LPS (5 μg/ml) and/or with Poly IC (5 μg/ml). The mRNA from each group of cells was extracted. The mRNA was then reverse-transcribed and PCR amplified for 35 cycles (as above in Example 1) with hTLR3 specific primers: TLR3F: […] (SEQ ID NO: 5) and TLR3R: […] (SEQ ID NO: 6). TLR3 mRNA could not be amplified from resting Cama-1 cells.
Amplified DNA from RT-PCR using hTLR3 specific primers was run on a gel.

Experiment [6] relates to colon cancer cell line LS174T. Nature of the experiment: BrdU incorporation and propidium iodide DNA content by FACS. The class given is cell-based. The method, then:
Two cell lines, the colon cancer cell line LS174T and the breast cancer cell line Cama-1, were analyzed for death and cell cycle changes. Cells were cultured for 48 hours in either the presence or absence of Poly IC (5 μg/ml). Following a 30-minute pulse with 1 μg/ml bromodeoxyuridine (BrdU), the cells were fixed overnight at 4° C. in 70% ethanol before staining with FITC-coupled anti-BrdU monoclonal antibody and 3 μg/ml propidium iodide. Cell death and the cell cycle were analyzed by flow cytometry (FACS). BrdU incorporation is a measure of proliferation, whereas propidium iodide staining allows the quantification of DNA content, in particular the subdiploid cell population undergoing apoptosis.
A general note: Dividing cells build labelled thymidine or BrdU into new DNA.

In experiment [7] the test system is IL-6. Nature of the experiment: IL-6 secretion by ELISA in siRNA transfected Cama-1 cells. The class given is cell-based, human. To be noted: 24 h with 5 μg/ml Poly IC, untreated 10. As for the experimental part:
IL-6 secretion was measured in culture supernatants by standard Enzyme-Linked Assay (ELISA) using a DuoSet ELISA kit according to manufacturer's instructions (R&D Systems).
In parallel, IL-6 concentration in the supernatants of siRNA transfected Cama-1 cells cultured for 24 hours either with or without 5 μg/ml of Poly IC was determined by ELISA. […] In the siRNA IRAK-4 group, untreated and treated cells had IL-6 concentrations (pg/ml/10^6 cells) of 10 and 40, respectively. In the siRNA TRAF6 group, untreated and treated cells had IL-6 concentrations (pg/ml/10^6 cells) of 10 and 20, respectively.
In general terms: ELISA stands for enzyme-linked immunosorbent assay.

In experiment [8] the test system is IFN-β. In words: Western Blot of Cama-1 cell lysate for IFN-β. In kind it is cell-based, human. The conditions noted are these: 5 μg/ml Poly IC, 0 to 24 hours. As for the experimental part: (§3) Cama-1 cells were lysed in 1% Nonidet-P40-containing buffer. 20 μg total protein was loaded per lane on SDS-Polyacrylamide gels (Invitrogen). Western Blots (WB) were performed with standard techniques using the antibodies described above. Anti IRAK-4 monoclonal antibodies were generated in the laboratory according to the protocol described in Fossiez et al., “T cell interleukin-17 induces stromal cells to produce proinflammatory and hematopoietic cytokines”, J. Exp. Med., vol. 183(6), pp. 2593-2603 (1996).
(§4) The involvement of type 1 interferon in TLR3 mediated apoptosis was evaluated. Cama-1 cells were incubated with 5 μg/ml Poly IC for either 0 hours, 1 hour, 6 hours, 18 hours or 24 hours. The presence of IFN-β, phosphorylated Stat1 (tyrosine 701) (P-Stat-1) and total Stat-1 in the cell lysate were analyzed by Western Blot.
For orientation: In western blotting, separated proteins are transferred to a membrane and probed.

In experiment [9] the test system is phosphorylated Stat1 (tyrosine 701). In words: Western Blot of Cama-1 cell lysate for phosphorylated Stat1. The class given is cell-based, human. The conditions noted are these: 5 μg/ml Poly IC. The method, then:
as §3, §4

The test system of experiment [10] is PARP. Nature of the experiment: Western Blot for cleavage of PARP in Cama-1 cells. In kind it is cell-based, human. The conditions noted are these: Poly IC treatment. The method, then: as §3
(§5) We next addressed the role of caspases in apoptosis. Cama-1 cells were pre-incubated with 25 μM of the general caspase inhibitor z-VAD-fmk or DMSO for 1 hour before culture for 24 hours with or without 5 μg/ml Poly IC or 25 ng/ml TNF-α (used as a positive control). Apoptosis was measured by annexin V staining and expressed as a percentage of apoptotic cell in the culture.
(§6) In another experiment, lysates from cells obtained above were analyzed by Western Blot for cleavage of PARP, Caspase 3 and Caspase 8.

In experiment [11] the test system is Caspase 3. Nature of the experiment: Western Blot for Caspase 3 in Cama-1 cells. The class given is cell-based, human. The conditions noted are these: Poly IC treatment. The method, then:
as §3, §5, §6

Regarding “polyinosinic-polycytidylic acid [Poly IC]”, the “cell recovery, percent of control” value in experiment [1] worked out at 67%; in [2] it was 33%; in experiment [3] it was 100%; in experiment [4] it was 75%. For the same substance, the “TLR3 mRNA expression” value in [5] (5 μg/ml, agent alone) is “induced”. In [5] (both Poly IC (5 μg/ml) and LPS (5 μg/ml)), the “TLR3 expression on gel” value is recorded as “showed TLR3 expression”. Besides, in [6] (48 h with 5 μg/ml Poly IC (3% before treatment)), the “percentage of cells with subdiploid DNA content” value is listed as 23%. For the same substance, in experiment [6] (48 h with 5 μg/ml Poly IC (27% before treatment)), the “percentage of cells that incorporated BrdU” value is on record as 9%. Further, the “IL-6 concentration in supernatant” value in [7] (scr group) is on record as 110 pg/ml/10^6 cells; in experiment [7] (siRNA IRAK-4 group), 40 pg/ml/10^6 cells; in experiment [7] (siRNA TRAF6 group) it was 20 pg/ml/10^6 cells. The IFN-β production entry in experiment [8] is recorded as “strongly induced”. Also, the “time of maximum Stat1 phosphorylation” value in experiment [9] was found to be 6 h. The Stat1 phosphorylation entry in [9] (0 to 24 hours) is recorded as “observed”. The “cleavage of PARP” value in [10] is “occurred”. Also, the “caspase 3 activation” value in [11] is given as “activated”.
